Where two headings read alike, the source gives them in different places.

As a reminder, the Ki is the equilibrium dissociation constant of an inhibitor or competing ligand from its target.

The target in assay [1] is T1, human PR-B (Homo sapiens, UniProt P06401).
T1 construct: expressed in transfected cells; host or cells: CV-1 cells (African green monkey kidney fibroblasts), transient transfection
T1 sequence (P06401 1-933): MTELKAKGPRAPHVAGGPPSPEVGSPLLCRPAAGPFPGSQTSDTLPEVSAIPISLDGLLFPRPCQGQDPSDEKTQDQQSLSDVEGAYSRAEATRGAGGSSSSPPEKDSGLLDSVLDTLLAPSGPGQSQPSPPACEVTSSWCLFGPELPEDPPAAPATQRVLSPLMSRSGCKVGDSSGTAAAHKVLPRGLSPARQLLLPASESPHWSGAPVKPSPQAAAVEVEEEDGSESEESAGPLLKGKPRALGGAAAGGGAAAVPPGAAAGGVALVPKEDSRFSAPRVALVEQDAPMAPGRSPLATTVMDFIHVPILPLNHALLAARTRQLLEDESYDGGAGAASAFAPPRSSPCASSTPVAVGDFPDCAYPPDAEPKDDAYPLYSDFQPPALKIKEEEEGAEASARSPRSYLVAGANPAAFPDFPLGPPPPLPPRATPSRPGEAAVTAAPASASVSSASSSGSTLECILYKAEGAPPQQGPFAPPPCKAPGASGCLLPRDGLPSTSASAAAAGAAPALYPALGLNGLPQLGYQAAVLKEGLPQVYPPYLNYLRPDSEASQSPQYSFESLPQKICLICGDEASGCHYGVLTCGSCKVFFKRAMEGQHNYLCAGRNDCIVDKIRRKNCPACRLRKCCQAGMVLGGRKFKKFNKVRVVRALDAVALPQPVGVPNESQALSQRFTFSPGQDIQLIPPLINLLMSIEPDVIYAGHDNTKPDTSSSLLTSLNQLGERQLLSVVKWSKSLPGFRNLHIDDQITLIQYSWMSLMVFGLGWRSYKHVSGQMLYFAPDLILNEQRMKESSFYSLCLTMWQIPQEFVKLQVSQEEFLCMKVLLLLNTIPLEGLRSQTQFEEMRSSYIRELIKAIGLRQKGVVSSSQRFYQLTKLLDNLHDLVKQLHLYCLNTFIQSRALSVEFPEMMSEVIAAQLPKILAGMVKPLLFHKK
The experiment in a line: Co-transfection assay, PR agonist activity.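 On all read-outs here: CV-1 cells (African green monkey kidney) co-transfected with receptor plasmid and hormone-responsive firefly luciferase reporter, agonism read as compound-dependent rise in luciferase signal.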 It is filed as cell-based. The following applies: for Emax: CV-1, read-out: PR Agonist CV-1 Cells Efficacy (%).

The target of assay [2] is T2, human progesterone receptor A form (PR-A) (Homo sapiens, UniProt P06401).
T2 sequence (P06401 1-933): T1 sequence (P06401 1-933)
In words: PR binding assay.

Assay [3] addresses T3, ER (Homo sapiens, UniProt P03372).
T3 construct: expressed in transfected cells; host or cells: CV-1 cells, transient transfection, with MTV-ERE5-LUC reporter
The experiment in a line: Co-transfection assay, ER agonist activity. It counts as cell-based. The following applies: for Emax: CV-1, read-out: ER Agonist CV-1 Cells Efficacy (%).

Assay [4] has as its target T3, ER. In words: Co-transfection assay, ER antagonist activity. It counts as cell-based. To be noted: for ER Antagonist CV-1 Cells Efficacy (%): percent maximal inhibition, estradiol at its EC50.
The target of another assay is T4, GR (Homo sapiens, UniProt P04150).
T4 construct: expressed in transfected cells; host or cells: CV-1 cells, transient transfection
T4 sequence (P04150 1-777): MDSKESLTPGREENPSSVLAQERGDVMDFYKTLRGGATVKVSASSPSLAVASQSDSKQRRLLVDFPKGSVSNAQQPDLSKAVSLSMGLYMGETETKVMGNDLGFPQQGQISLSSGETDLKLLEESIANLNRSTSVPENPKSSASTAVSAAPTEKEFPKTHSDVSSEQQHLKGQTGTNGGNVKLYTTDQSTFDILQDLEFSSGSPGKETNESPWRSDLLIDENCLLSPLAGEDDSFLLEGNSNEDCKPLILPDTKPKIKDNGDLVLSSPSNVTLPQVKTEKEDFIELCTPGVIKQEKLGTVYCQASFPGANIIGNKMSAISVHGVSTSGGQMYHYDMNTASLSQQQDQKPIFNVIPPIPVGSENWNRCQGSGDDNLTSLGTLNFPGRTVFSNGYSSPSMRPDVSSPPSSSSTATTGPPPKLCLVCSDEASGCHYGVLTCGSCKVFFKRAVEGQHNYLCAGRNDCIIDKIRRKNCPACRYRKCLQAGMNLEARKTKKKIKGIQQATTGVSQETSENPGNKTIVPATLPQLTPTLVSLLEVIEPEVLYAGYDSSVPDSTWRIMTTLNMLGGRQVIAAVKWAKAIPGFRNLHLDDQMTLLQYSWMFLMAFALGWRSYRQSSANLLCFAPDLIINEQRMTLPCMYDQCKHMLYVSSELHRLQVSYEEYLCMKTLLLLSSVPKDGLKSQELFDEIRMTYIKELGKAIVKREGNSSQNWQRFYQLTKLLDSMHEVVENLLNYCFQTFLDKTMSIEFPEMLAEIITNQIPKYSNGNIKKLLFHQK
The experiment in a line: Co-transfection assay, GR antagonist activity. It counts as cell-based. The following applies: for Emax: CV-1, read-out: GR Antagonist CV-1 Cells Efficacy (%).

The target of the next assay is T5, MR (Homo sapiens, UniProt P08235).
T5 construct: expressed in transfected cells; host or cells: CV-1 cells, transient transfection
T5 sequence (P08235 1-984): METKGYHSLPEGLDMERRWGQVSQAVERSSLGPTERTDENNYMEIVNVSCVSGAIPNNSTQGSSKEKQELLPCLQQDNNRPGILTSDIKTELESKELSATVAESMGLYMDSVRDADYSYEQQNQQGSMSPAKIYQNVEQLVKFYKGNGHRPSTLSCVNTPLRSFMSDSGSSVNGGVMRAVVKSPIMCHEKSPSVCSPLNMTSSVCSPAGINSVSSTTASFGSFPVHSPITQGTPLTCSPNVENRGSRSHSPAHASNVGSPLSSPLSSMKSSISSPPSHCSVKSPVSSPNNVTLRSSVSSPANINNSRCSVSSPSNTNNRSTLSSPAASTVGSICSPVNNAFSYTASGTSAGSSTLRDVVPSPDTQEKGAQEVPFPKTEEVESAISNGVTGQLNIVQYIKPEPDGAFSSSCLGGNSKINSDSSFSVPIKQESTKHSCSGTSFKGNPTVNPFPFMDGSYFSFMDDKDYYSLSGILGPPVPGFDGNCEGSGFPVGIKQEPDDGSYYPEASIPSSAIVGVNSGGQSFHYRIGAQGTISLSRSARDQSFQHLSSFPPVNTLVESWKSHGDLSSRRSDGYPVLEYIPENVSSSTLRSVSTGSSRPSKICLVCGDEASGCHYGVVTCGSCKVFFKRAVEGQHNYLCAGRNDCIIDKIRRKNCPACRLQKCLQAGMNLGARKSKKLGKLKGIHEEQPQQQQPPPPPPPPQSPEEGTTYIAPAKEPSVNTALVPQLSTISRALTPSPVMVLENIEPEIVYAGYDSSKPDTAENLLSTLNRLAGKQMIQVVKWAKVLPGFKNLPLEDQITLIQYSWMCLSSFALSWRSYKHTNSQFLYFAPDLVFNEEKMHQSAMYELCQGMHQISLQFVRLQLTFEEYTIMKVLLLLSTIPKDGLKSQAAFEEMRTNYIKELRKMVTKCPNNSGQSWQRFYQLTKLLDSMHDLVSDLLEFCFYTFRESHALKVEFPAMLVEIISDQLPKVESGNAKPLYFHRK
The experiment in a line: Co-transfection assay, MR antagonist activity. It is filed as cell-based. The following applies: for Emax: CV-1, read-out: MR Antagonist CV-1 Cells Efficacy (%).

Assay [5] addresses T1, human PR-B. In words: Co-transfection assay, PR antagonist activity.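 On all read-outs here: monkey kidney fibroblasts co-transfected with receptor expression plasmid and hormone-responsive luciferase reporter, antagonism read as reduced luciferase signal.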 It counts as cell-based. To be noted: for Emax: CV-1, read-out: PR Antagonist CV-1 Cells Efficacy (%).
The next assay relates to PR. In words: Uterine wet weight assay (PR agonist effectiveness). It counts as in vivo, Sprague-Dawely rats. The following applies: for effect on uterine wet weight: doses of 0.3 mg, 1.0 mg, and 3.0 mg/rat. The source says: J. Obstet. […] R.I. Dorfman, Academic Press, New York, New York, pp101-130 (1969), the disclosures of which are herein incorporated by reference. Four to five week old, ovariectomized, Sprague-Dawely rats (Harlan-Sprague-Dawely, Indianapolis, IN) were obtained 1 week after surgery and allowed to acclimate for an additional week after shipment.

In the next assay the target is T6, AR (Homo sapiens, UniProt P10275).
T6 construct: expressed in transfected cells; host or cells: CV-1 cells, transient transfection
T6 sequence (P10275 whole entry): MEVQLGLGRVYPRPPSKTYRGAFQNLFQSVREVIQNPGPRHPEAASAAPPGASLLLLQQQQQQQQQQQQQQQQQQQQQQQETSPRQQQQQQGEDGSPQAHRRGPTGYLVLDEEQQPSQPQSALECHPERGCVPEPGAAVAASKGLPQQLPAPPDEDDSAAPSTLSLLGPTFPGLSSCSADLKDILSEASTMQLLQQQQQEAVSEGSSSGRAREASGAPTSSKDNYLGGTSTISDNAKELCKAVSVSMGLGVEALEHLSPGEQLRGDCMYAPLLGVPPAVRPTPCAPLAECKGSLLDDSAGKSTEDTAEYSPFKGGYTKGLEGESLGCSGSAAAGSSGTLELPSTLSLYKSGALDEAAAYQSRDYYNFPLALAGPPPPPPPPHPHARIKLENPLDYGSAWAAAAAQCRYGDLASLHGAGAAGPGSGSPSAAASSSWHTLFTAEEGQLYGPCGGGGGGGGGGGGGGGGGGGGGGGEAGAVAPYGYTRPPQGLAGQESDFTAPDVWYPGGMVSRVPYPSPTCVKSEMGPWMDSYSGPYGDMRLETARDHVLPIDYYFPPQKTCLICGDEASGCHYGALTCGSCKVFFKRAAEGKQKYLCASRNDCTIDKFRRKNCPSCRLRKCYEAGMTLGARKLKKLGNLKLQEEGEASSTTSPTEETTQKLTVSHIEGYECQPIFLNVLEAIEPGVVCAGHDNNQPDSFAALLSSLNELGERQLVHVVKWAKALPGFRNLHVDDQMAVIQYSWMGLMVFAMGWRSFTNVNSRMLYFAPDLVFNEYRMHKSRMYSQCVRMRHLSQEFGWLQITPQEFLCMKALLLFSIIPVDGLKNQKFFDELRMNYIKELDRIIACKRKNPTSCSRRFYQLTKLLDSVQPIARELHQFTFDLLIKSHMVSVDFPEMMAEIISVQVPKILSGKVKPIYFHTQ
The experiment in a line: Co-transfection assay, AR antagonist activity. It is filed as cell-based.

T3 sequence (P03372 whole entry): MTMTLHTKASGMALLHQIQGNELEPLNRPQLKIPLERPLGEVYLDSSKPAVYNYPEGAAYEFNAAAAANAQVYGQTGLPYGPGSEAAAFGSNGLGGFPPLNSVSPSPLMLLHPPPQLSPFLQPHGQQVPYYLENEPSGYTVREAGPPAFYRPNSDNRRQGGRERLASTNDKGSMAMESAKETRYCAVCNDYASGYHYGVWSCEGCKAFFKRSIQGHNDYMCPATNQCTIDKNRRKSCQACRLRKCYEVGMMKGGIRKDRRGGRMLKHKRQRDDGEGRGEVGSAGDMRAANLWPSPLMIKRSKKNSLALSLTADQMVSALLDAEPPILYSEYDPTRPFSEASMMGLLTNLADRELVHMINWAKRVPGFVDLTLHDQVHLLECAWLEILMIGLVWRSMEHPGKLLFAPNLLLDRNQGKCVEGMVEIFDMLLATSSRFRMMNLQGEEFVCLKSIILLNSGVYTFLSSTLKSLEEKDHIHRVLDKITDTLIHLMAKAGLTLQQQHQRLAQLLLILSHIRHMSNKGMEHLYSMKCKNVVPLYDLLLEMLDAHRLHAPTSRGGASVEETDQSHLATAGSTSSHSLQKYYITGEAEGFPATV

“8-Bromo-1,2-dihydro-2,2,4-trimethylindeno[1,2-g]quinoline [Compound 117]”: the EC50 on human PR-B [1] (CV-1 cells, agonist potency = EC50, read-out: PR Agonist CV-1 Cells Potency) was > 10000 nM. In addition, the “PR Agonist CV-1 Cells Efficacy (%)” value at human PR-B [1] (CV-1 cells, percent maximal response relative to reference agonist progesterone) was “na (na = not active (i.e. efficacy of <20 and potency of >10,000))”. For the same compound, the Ki in assay [2] (competition with [3H] progesterone, baculovirus extract, 4°C, 16 hours, read-out: PR Binding Ki) is > 10000 nM.
On to “8-Fluoro-1,2-dihydro-2,2,4-trimethylindeno[1,2-g]quinoline [Compound 124]”, for which the EC50 at ER [3] (Table 5 overall potency, co-transfection assay, read-out: ER Potency Agon) came to 2100 nM. In addition, the IC50 at ER [4] (Table 5 overall potency, co-transfection assay, read-out: ER Potency Antag) is > 10000 nM; at GR (Table 5 overall potency, co-transfection assay, read-out: GR Potency Antag), > 10000 nM; at MR (Table 5 overall potency, co-transfection assay, read-out: MR Potency Antag), > 10000 nM.
As to `CC1=CC(C)(C)Nc2ccc3c(c21)C(c1ccc(Cl)cc1)Oc1ccccc1-3` (racemic) [Compound 163, (R/S)-5-(4-Chlorophenyl)-1,2-dihydro-2,2,4-trimethyl-5H-chromeno[3,4-f]quinoline], the results for the Emax on human PR-B [1] and on human PR-B [5] were 77% and 45%, respectively. In addition, the EC50 on ER [3] was > 10000 nM. The IC50 worked out at 2150 nM against ER [4], 1330 nM against GR and 1450 nM at MR. The “Mean Uterine Wet Weight” value in the assay on PR (3.0 mg/rat oral once a day for three days in the presence of estrone (10 µg/day, subcutaneous)) is recorded as 125 mg. Further, in the assay on PR (co-administered with estrone, dosage of 3 mg/rat), the “effect on mean uterine wet weight” value is recorded as “decreased by approximately half”.
As to `C=C1CC(C)(C)Nc2ccc3c(c21)C(c1cccc(F)c1)Oc1ccccc1-3` (racemic) [Compound 192, (R/S)-5-(3-Fluorophenyl)-1,2,3,4-tetrahydro-2,2-dimethyl-4-methylidene-5H-chromeno[3,4-f]quinoline], the EC50 on human PR-B [1] and on ER [3] was > 10000 nM throughout. Moreover, the IC50 at human PR-B [5] stood at 89 nM; at AR, 79 nM; on ER [4], 195 nM. For the same compound, the Emax on ER [3] is < 20%; at GR, 81%; on MR it was 70%. At ER [4], the “ER Antagonist CV-1 Cells Efficacy (%)” value turned out to be 80%.
`CC1=CC(C)(C)Nc2ccc3c(c21)C(c1cccc(C(F)(F)F)c1)Oc1ccccc1-3` (racemic) [Compound 195, (R/S) 1,2-Dihydro-2,2,4-trimethyl-5-[3-(trifluoromethyl)phenyl]-5H-chromeno[3,4-f]quinoline]: the Emax is 89% at human PR-B [1]; < 20% on human PR-B [5]; 90% at ER [3]; 96% on GR; 47% on MR. Also, the IC50 turned out to be 470 nM at AR and 4410 nM against ER [4]. Moreover, at ER [4], the “ER Antagonist CV-1 Cells Efficacy (%)” value turned out to be 68%.
Take `CCCCC1Oc2ccc(F)cc2-c2ccc3c(c21)C(C)=CC(C)(C)N3` (racemic) [Compound 210, (R/S)-5-Butyl-9-fluoro-1,2-dihydro-2,2,4-trimethyl-5H-chromeno[3,4-f]quinoline]: the “effect on uterine wet weight” value with PR (co-administered with estrone) is reported as “decreased by approximately half”.
In the case of `C[C@H]1C(=O)C(C)(C)Nc2ccc3c(c21)O[C@H](c1ccccc1)c1ccccc1-3` (relative stereo) [Compound 391, (R/S-4l,6l)-1,2,3,4-Tetrahydro-2,2,4-trimethyl-6-phenyl-5H-isochromeno[3,4-f]-3-quinolinone], on human PR-B [1], the EC50 was > 10000 nM and the Emax is < 20%. For the same compound, at human PR-B [5], the IC50 turned out to be 120 nM and the Emax stood at 65%. Moreover, the affinity in [2], expressed as Ki, was 187 nM.
In the case of `CCCCN(C)C(=O)CCCCCCCCCC[C@@H]1Cc2cc(O)ccc2[C@H]2CC[C@]3(C)[C@@H](O)CC[C@H]3[C@H]12` [ICI 164, N-butyl-3,17-dihydroxy-N-methyl-(7-alpha, 17-beta)-estra-1,3,5(10)-triene-7-undecanamide, reference compound], the Emax on ER [3] is < 20%. For the same compound, the “ER Antagonist CV-1 Cells Efficacy (%)” value on ER [4] was 99%.
In the case of `CC(=O)O[C@]1(C(C)=O)CC[C@H]2[C@@H]3C[C@H](C)C4=CC(=O)CC[C@]4(C)[C@H]3CC[C@@]21C` [MPA, medroxyprogesterone acetate, reference compound], the “effect on uterine wet weight” value with PR (co-administered with estrone) is reported as “significantly decreased the uterine wet weight”.
As to `C[C@]12CC[C@@H]3c4ccc(O)cc4CC[C@H]3[C@@H]1CCC2=O` [estrone, reference compound], in the assay on PR (estrone 10 µg/day subcutaneous alone, three days, ovariectomized rats), the “Mean Uterine Wet Weight” value is recorded as 205 mg. The “increase of uterine wet weight over control treated animals” value with PR (estrone alone) turned out to be 4 fold.

These data come from patent EP1382597A2, “Steroid receptor modulator compounds and methods” (LIGAND PHARMACEUTICALS, INC., priority 1994, dated 1996).
